Earlier results as cited in patent US9808437B2, “Monounsaturated fatty acid compositions and use for treating atherosclerosis” (BURKE & BOYER NYC, priority 2014, dated 2017).

Tested on: ApoE-deficient mice
Details: 20 mg/kg/day; control 21.9 ± 2.9; P<0.05

Q: Which “Aortic Lesion” value does the source give for `CC(C)c1nc(N(C)S(C)(=O)=O)nc(-c2ccc(F)cc2)c1/C=C/[C@@H](O)C[C@@H](O)CC(=O)O` [Rosuvastatin] here?
A: Its value is 11.9 ± 1.9 %.
